# Data reported in ChEMBL document CHEMBL3885881, “DrugMatrix”.
# Organism: Rattus norvegicus
# Test: DrugMatrix - Regimen: Daily Repeat
# Format: toxicity, organism-based, Sprague-Dawley
# Set-up: regimen Daily Repeat, gender Male, age 6-8 weeks
# Conditions: in vivo, po, route oral GAVAGE, vehicle .5 % CMC; for ABSOLUTE BASOPHIL / ABSOLUTE EOSINOPHIL / ABSOLUTE LYMPHOCYTE / ABSOLUTE MONOCYTE / ABSOLUTE SEGMENTED NEUTROPHIL / BASOPHIL / EOSINOPHIL / ERYTHROCYTE COUNT / HEMATOCRIT / HEMOGLOBIN / LEUKOCYTE COUNT / LYMPHOCYTE / MEAN CORPUSCULAR HEMOGLOBIN / MEAN CORPUSCULAR HEMOGLOBIN CONCENTRATION / MEAN CORPUSCULAR VOLUME / MONOCYTE / NEUTROPHIL / NUCLEATED RED BLOOD CELLS / PLATELET COUNT: tissue Blood; for ALANINE AMINOTRANSFERASE / ALBUMIN / ALKALINE PHOSPHATASE / ASPARTATE AMINOTRANSFERASE / BLOOD UREA NITROGEN / CARBON DIOXIDE / CHLORIDE / CHOLESTEROL / CREATINE PHOSPHOKINASE / CREATININE / GLUCOSE / LACTATE DEHYDROGENASE / LIPASE / PHOSPHORUS / POTASSIUM / SODIUM / TOTAL BILIRUBIN / TOTAL PROTEIN / URIC ACID: tissue Plasma
# [1] = 0 mg/kg, 72 h, dose level Control, time 3 day
# [2] = 0 mg/kg, 120 h, dose level Control, time 5 day
# [3] = 59 mg/kg, 72 h, dose level Low, time 3 day
# [4] = 59 mg/kg, 120 h, dose level Low, time 5 day
smiles,measurement,setting,value
Cc1c(-c2ccccc2)oc2c(C(=O)OCCN3CCCCC3)cccc2c1=O [FLAVOXATE],ABSOLUTE BASOPHIL,[1],0 CELLS/uL
same,ABSOLUTE EOSINOPHIL,[1],32.5 CELLS/uL
same,ABSOLUTE LYMPHOCYTE,[1],13494.17 CELLS/uL
same,ABSOLUTE MONOCYTE,[1],474 CELLS/uL
same,ABSOLUTE SEGMENTED NEUTROPHIL,[1],1932.67 CELLS/uL
same,BASOPHIL,[1],0%
same,EOSINOPHIL,[1],0.17%
same,ERYTHROCYTE COUNT,[1],5.45 x10E6/uL
same,HEMATOCRIT,[1],34.32%
same,HEMOGLOBIN,[1],13.82 G/DL
same,LEUKOCYTE COUNT,[1],15.93 x10E3/uL
same,LYMPHOCYTE,[1],84.83%
same,MEAN CORPUSCULAR HEMOGLOBIN,[1],25.38 pg
same,MEAN CORPUSCULAR HEMOGLOBIN CONCENTRATION,[1],40.27 G/DL
same,MEAN CORPUSCULAR VOLUME,[1],63.05 fL
same,MONOCYTE,[1],3%
same,NEUTROPHIL,[1],12%
same,NUCLEATED RED BLOOD CELLS,[1],0.67 /100WBC
same,PLATELET COUNT,[1],1188.5 x10E3/uL
same,ALANINE AMINOTRANSFERASE,[1],54.83 u/L
same,ALBUMIN,[1],4.22 G/DL
same,ALKALINE PHOSPHATASE,[1],427.67 u/L
same,ASPARTATE AMINOTRANSFERASE,[1],86.5 u/L
same,BLOOD UREA NITROGEN,[1],15.33 mg/dL
same,CARBON DIOXIDE,[1],24.83 mmol/L
same,CHLORIDE,[1],102.33 MEQ/L
same,CHOLESTEROL,[1],71.67 mg/dL
same,CREATINE PHOSPHOKINASE,[1],442.5 u/L
same,CREATININE,[1],0.19 mg/dL
same,GLUCOSE,[1],160.67 mg/dL
same,LACTATE DEHYDROGENASE,[1],236.5 u/L
same,LIPASE,[1],9 u/L
same,PHOSPHORUS,[1],11.97 mg/dL
same,POTASSIUM,[1],6.2 MEQ/L
same,SODIUM,[1],142.85 MEQ/L
same,TOTAL BILIRUBIN,[1],0.2 mg/dL
same,TOTAL PROTEIN,[1],5.8 G/DL
same,URIC ACID,[1],1.3 mg/dL
same,ABSOLUTE BASOPHIL,[2],0 CELLS/uL
same,ABSOLUTE EOSINOPHIL,[2],114.5 CELLS/uL
same,ABSOLUTE LYMPHOCYTE,[2],14614 CELLS/uL
same,ABSOLUTE MONOCYTE,[2],173 CELLS/uL
same,ABSOLUTE SEGMENTED NEUTROPHIL,[2],1048.5 CELLS/uL
same,BASOPHIL,[2],0%
same,EOSINOPHIL,[2],0.67%
same,ERYTHROCYTE COUNT,[2],5.66 x10E6/uL
same,HEMATOCRIT,[2],35.52%
same,HEMOGLOBIN,[2],14.27 G/DL
same,LEUKOCYTE COUNT,[2],15.95 x10E3/uL
same,LYMPHOCYTE,[2],91.33%
same,MEAN CORPUSCULAR HEMOGLOBIN,[2],25.23 pg
same,MEAN CORPUSCULAR HEMOGLOBIN CONCENTRATION,[2],40.2 G/DL
same,MEAN CORPUSCULAR VOLUME,[2],62.7 fL
same,MONOCYTE,[2],1.17%
same,NEUTROPHIL,[2],6.83%
same,NUCLEATED RED BLOOD CELLS,[2],0.33 /100WBC
same,PLATELET COUNT,[2],1229 x10E3/uL
same,ALANINE AMINOTRANSFERASE,[2],58.67 u/L
same,ALBUMIN,[2],4.32 G/DL
same,ALKALINE PHOSPHATASE,[2],382.5 u/L
same,ASPARTATE AMINOTRANSFERASE,[2],81.67 u/L
same,BLOOD UREA NITROGEN,[2],17.67 mg/dL
same,CARBON DIOXIDE,[2],27.17 mmol/L
same,CHLORIDE,[2],102.33 MEQ/L
same,CHOLESTEROL,[2],63.67 mg/dL
same,CREATINE PHOSPHOKINASE,[2],227.67 u/L
same,CREATININE,[2],0.23 mg/dL
same,GLUCOSE,[2],155.33 mg/dL
same,LACTATE DEHYDROGENASE,[2],146.5 u/L
same,LIPASE,[2],10.67 u/L
same,PHOSPHORUS,[2],11.93 mg/dL
same,POTASSIUM,[2],6.85 MEQ/L
same,SODIUM,[2],143.95 MEQ/L
same,TOTAL BILIRUBIN,[2],0.18 mg/dL
same,TOTAL PROTEIN,[2],6.02 G/DL
same,URIC ACID,[2],1.63 mg/dL
same,ABSOLUTE BASOPHIL,[3],0 CELLS/uL
same,ABSOLUTE EOSINOPHIL,[3],0 CELLS/uL
same,ABSOLUTE LYMPHOCYTE,[3],10292.33 CELLS/uL
same,ABSOLUTE MONOCYTE,[3],303.67 CELLS/uL
same,ABSOLUTE SEGMENTED NEUTROPHIL,[3],1637.33 CELLS/uL
same,BASOPHIL,[3],0%
same,EOSINOPHIL,[3],0%
same,ERYTHROCYTE COUNT,[3],5.31 x10E6/uL
same,HEMATOCRIT,[3],32.77%
same,HEMOGLOBIN,[3],12.9 G/DL
same,LEUKOCYTE COUNT,[3],12.23 x10E3/uL
same,LYMPHOCYTE,[3],84%
same,MEAN CORPUSCULAR HEMOGLOBIN,[3],24.3 pg
same,MEAN CORPUSCULAR HEMOGLOBIN CONCENTRATION,[3],39.4 G/DL
same,MEAN CORPUSCULAR VOLUME,[3],61.7 fL
same,MONOCYTE,[3],2.67%
same,NEUTROPHIL,[3],13.33%
same,NUCLEATED RED BLOOD CELLS,[3],0.33 /100WBC
same,PLATELET COUNT,[3],1448 x10E3/uL
same,ALANINE AMINOTRANSFERASE,[3],51.33 u/L
same,ALBUMIN,[3],4.17 G/DL
same,ALKALINE PHOSPHATASE,[3],336.67 u/L
same,ASPARTATE AMINOTRANSFERASE,[3],71.67 u/L
same,BLOOD UREA NITROGEN,[3],15 mg/dL
same,CARBON DIOXIDE,[3],24.33 mmol/L
same,CHLORIDE,[3],101.67 MEQ/L
same,CHOLESTEROL,[3],85.67 mg/dL
same,CREATINE PHOSPHOKINASE,[3],168.33 u/L
same,CREATININE,[3],0.14 mg/dL
same,GLUCOSE,[3],167.33 mg/dL
same,LACTATE DEHYDROGENASE,[3],73.67 u/L
same,LIPASE,[3],9.67 u/L
same,PHOSPHORUS,[3],13.13 mg/dL
same,POTASSIUM,[3],6.68 MEQ/L
same,SODIUM,[3],144.33 MEQ/L
same,TOTAL BILIRUBIN,[3],0.2 mg/dL
same,TOTAL PROTEIN,[3],5.6 G/DL
same,URIC ACID,[3],1.77 mg/dL
same,ABSOLUTE BASOPHIL,[4],0 CELLS/uL
same,ABSOLUTE EOSINOPHIL,[4],0 CELLS/uL
same,ABSOLUTE LYMPHOCYTE,[4],14413.67 CELLS/uL
same,ABSOLUTE MONOCYTE,[4],41.67 CELLS/uL
same,ABSOLUTE SEGMENTED NEUTROPHIL,[4],1278 CELLS/uL
same,BASOPHIL,[4],0%
same,EOSINOPHIL,[4],0%
same,ERYTHROCYTE COUNT,[4],5.45 x10E6/uL
same,HEMATOCRIT,[4],34.03%
same,HEMOGLOBIN,[4],13.93 G/DL
same,LEUKOCYTE COUNT,[4],15.73 x10E3/uL
same,LYMPHOCYTE,[4],92%
same,MEAN CORPUSCULAR HEMOGLOBIN,[4],25.57 pg
same,MEAN CORPUSCULAR HEMOGLOBIN CONCENTRATION,[4],40.93 G/DL
same,MEAN CORPUSCULAR VOLUME,[4],62.5 fL
same,MONOCYTE,[4],0.33%
same,NEUTROPHIL,[4],7.67%
same,NUCLEATED RED BLOOD CELLS,[4],0 /100WBC
same,PLATELET COUNT,[4],1355 x10E3/uL
same,ALANINE AMINOTRANSFERASE,[4],45.67 u/L
same,ALBUMIN,[4],4.07 G/DL
same,ALKALINE PHOSPHATASE,[4],365.33 u/L
same,ASPARTATE AMINOTRANSFERASE,[4],71.33 u/L
same,BLOOD UREA NITROGEN,[4],16 mg/dL
same,CARBON DIOXIDE,[4],25 mmol/L
same,CHLORIDE,[4],103.33 MEQ/L
same,CHOLESTEROL,[4],77 mg/dL
same,CREATINE PHOSPHOKINASE,[4],183.67 u/L
same,CREATININE,[4],0.19 mg/dL
same,GLUCOSE,[4],155.67 mg/dL
same,LACTATE DEHYDROGENASE,[4],161.33 u/L
same,LIPASE,[4],9.67 u/L
same,PHOSPHORUS,[4],12.93 mg/dL
same,POTASSIUM,[4],6.66 MEQ/L
same,SODIUM,[4],145.6 MEQ/L
same,TOTAL BILIRUBIN,[4],0.17 mg/dL
same,TOTAL PROTEIN,[4],5.8 G/DL
same,URIC ACID,[4],1.4 mg/dL
